In assay [1] the target is T1, human cloned 5-HT2A receptor, expressed in L929 cells (Homo sapiens, UniProt P28223).
T1 construct: expressed in transfected cells; host or cells: L929 cells
As to the kind of experiment: In vitro binding affinity for 5-HT2A receptor ([125I]R91150 radioligand binding). The note with it: human cloned 5-HT2A receptor in L929 cells, [125I]R91150; read-out: 5-HT2A pIC50 (converted). The procedure, abridged: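 Competition radioligand binding to human cloned 5-HT2A receptor expressed in L929 cells, using [125I]R91150 with test compound at various concentrations. At equilibrium, receptor-bound radioactivity was separated from free and counted. Affinity reflects inhibition of radioligand binding.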

Assay [2] addresses T2, human cloned 5-HT2C receptor, expressed in CHO cells (Homo sapiens, UniProt P28335).
T2 construct: expressed in transfected cells; host or cells: CHO cells
T2 sequence (P28335 33-458): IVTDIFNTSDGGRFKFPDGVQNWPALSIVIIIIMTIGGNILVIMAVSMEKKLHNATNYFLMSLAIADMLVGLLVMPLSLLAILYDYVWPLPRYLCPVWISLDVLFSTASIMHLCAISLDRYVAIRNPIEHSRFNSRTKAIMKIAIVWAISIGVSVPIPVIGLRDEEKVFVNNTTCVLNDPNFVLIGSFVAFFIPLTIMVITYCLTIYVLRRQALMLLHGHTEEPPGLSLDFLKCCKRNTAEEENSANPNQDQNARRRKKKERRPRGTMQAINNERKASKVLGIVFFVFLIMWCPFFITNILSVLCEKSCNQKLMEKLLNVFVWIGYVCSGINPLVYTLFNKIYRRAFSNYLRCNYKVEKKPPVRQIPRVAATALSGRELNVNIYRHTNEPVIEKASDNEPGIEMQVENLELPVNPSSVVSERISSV
As to the kind of experiment: In vitro binding affinity for 5-HT2C receptor ([3H]mesulergine radioligand binding). The note with it: human cloned 5-HT2C receptor, read-out: 5-HT2C pIC50 (converted). In outline:
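Competition radioligand binding: varying test-compound concentrations incubated with receptor preparation and radioligand to binding equilibrium. Bound radioactivity separated from free and counted; affinity inferred from concentration-dependent inhibition of radioligand binding.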

The target in assay [3] is T3, human Dopamine D2L receptor (Homo sapiens, UniProt P14416).
T3 construct: expressed in transfected cells; host or cells: CHO cells
T3 sequence (P14416 whole entry): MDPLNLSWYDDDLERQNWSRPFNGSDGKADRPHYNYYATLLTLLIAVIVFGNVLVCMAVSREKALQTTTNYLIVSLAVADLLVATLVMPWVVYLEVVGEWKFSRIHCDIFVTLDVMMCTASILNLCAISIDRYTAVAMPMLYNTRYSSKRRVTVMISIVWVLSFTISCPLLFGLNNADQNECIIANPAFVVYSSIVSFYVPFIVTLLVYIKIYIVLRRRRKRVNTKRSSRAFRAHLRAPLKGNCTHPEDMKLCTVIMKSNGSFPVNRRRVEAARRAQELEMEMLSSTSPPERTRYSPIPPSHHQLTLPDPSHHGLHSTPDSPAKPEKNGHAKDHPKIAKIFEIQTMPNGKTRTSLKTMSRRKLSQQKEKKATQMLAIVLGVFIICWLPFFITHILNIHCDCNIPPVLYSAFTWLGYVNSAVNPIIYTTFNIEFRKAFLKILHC
Description: In vitro binding affinity for human D2L receptor ([3H]Spiperone binding). The note with it: human D2L receptor-transfected CHO cell membranes, read-out: D2L pIC50 (converted). The procedure, abridged: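 Membranes from CHO cells transfected with the receptor were incubated with [3H]Spiperone (diluted to 2 nmol/L before addition) and compound for 30 min at 37° C. Buffer was Tris-HCl, pH 7.7, with NaCl, CaCl2, MgCl2 and KCl, and non-specific binding was defined with 10^−6 mol/l Butaclamol. Bound radioactivity was collected by filtration, counted by scintillation, and competition curves calculated as percent specific binding.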

In assay [4] the target is T4, NET (norepinephrine transporter) (Rattus norvegicus, UniProt Q63380).
T4 construct: Cortex from rat brain was collected and homogenised; from tissue; host or cells: rat brain cortex
T4 sequence (Q63380 1-617): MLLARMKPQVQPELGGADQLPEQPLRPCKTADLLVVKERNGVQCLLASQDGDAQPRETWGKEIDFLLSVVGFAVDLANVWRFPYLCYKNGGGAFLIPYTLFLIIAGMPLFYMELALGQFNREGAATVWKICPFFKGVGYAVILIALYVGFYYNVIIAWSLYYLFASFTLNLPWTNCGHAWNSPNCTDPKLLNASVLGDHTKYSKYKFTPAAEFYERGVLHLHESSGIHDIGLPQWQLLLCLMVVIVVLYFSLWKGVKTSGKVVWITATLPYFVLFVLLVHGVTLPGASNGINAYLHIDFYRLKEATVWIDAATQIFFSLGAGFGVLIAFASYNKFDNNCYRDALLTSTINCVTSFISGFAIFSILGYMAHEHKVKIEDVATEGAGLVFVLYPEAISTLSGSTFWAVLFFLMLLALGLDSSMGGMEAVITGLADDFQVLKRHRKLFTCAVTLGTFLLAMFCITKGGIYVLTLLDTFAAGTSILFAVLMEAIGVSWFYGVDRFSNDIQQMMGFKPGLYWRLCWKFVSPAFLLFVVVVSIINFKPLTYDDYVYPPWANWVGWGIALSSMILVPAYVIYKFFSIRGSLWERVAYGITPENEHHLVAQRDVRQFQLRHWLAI
Description: In vitro determination of NET reuptake inhibition ([3H]Nixosetine binding, rat brain cortex). The note with it: rat brain cortex, read-out: NET pIC50 (converted). In outline: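 Rat cortex homogenised in Tris 50 mM, NaCl 120 mM, KCl 5 mM, pH 7.4 was used for competition binding against [3H]nisoxetine. Bound radioligand was collected by filtration on GF/B filters and counted by scintillation. Percentage specific binding and competition curves were derived.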

T1 sequence (P28223 whole entry): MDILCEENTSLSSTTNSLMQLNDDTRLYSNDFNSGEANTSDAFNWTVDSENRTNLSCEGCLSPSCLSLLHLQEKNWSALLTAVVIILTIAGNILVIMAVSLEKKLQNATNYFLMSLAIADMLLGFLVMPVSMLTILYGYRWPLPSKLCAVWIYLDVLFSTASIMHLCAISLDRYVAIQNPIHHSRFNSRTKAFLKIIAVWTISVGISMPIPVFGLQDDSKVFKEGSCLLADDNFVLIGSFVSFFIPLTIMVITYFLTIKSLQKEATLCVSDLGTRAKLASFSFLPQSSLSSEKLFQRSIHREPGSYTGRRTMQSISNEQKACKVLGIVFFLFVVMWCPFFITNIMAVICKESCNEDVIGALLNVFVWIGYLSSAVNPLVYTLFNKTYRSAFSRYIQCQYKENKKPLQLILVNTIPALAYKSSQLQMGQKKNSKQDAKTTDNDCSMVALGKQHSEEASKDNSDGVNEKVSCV

With `OCCC1CCN(CC2CC3c4ccccc4Cc4ccc(F)cc4C3O2)C1` (mixture of isomers) [Compound 6], the IC50 in assay [1] is 1.45 nM; in assay [2], 1.7 nM; in assay [3] it was 4.07 nM; in assay [4], 501 nM.
As to `O=S(=O)(c1ccccc1)n1cccc1CN1CCN(CC2CC3c4ccccc4Cc4ccc(F)cc4C3O2)CC1` (centres unmarked) [Compound 68], the IC50 is 67.6 nM in assay [1], 117 nM in assay [2], 91.2 nM in assay [3] and 2400 nM in assay [4].
